Patent US10369187B2, “Peptide regulators of JNK family kinases” (Vanderbilt University, priority 2017, dated 2019)

Tests used:
[1] = test system: ASK1-MKK4/7-JNK3 signaling cascade; experiment: In cell JNK3 activation assay (co-expression with HA-ASK1 and HA-JNK3α2, phospho-JNK Western blot); type: cell-based, African green monkey; conditions: for JNK3 phosphorylation in cells, YFP fusions: YFP fusions co-expressed with JNK3 and ASK1 in COS7 cells
Procedure: (§1) COS-7 African green monkey cells were maintained in DMEM supplemented with 10% heat-inactivated FBS (Invitrogen), penicillin, and streptomycin at 37° C. in a humidified incubator with 5% CO2. The cells were plated at 80-90% confluence and transfected using Lipofectamine 2000 (Invitrogen) according to the manufacturer's instructions. Cells were used 48 h post-transfection and serum-starved overnight before experiments.
COS-7 cells were incubated with phosphatase inhibitors (50 mM NaF and 10 mM Na3VO4) in serum-free medium for 15 min at 37° C.; washed with cold PBS; and lysed with SDS lysis buffer containing 1% SDS, 10 mM Tris (pH7.4), 10 mM NaF, 100 μM Na3VO4, 2 mM EDTA, 2 mM benzamidine and 1 mM PMSF. JNKs activity was assayed by Western blotting using an antibody specific for phosphorylated JNK to detect phosphorylated (active) JNKs^17,20,23. Whole cell lysates were boiled for 5 min and centrifuged at 10,000×g for 10 min, and the supernatants were used for Western blotting. Protein was measured using the Bio-Rad Coomassie Blue assay. The proteins were resolved on 8% SD S-PAGE and transferred to PVDF membrane (Millipore, Bedford, Mass.). Blots were incubated with the primary antibodies (Cell Signaling Technology, Inc) anti-phospho-JNK, anti-JNK, anti-HA (6E2) (1:1000 to 1:5000), followed by appropriate HRP-conjugated secondary antibodies. Protein bands were detected by enhanced chemiluminescence (ECL, Pierce), followed by exposure to x-ray film. To quantify phospho-JNKs, serial dilutions of anisomycin (1 μg/ml)-stimulated HEK-A cell lysates were used to ensure that all samples were in linear range. The values for these proteins are expressed in arbitrary units.
The JNK3 activation was next tested in cells (See FIG. 7). COS7 cells were transfected with HA-ASK1, HA-JNK3α2, and YFP-arrestin constructs to measure in cell JNK3α2 activation. Phospho-JNK3 is shown as the uppermost band in the Western analysis, and was analyzed by densitometric quantification using Quantity One software (quantification in bottom panel). […] The data were statistically analyzed by ANOVA with protein as the main factor. Significance of the difference from control (p values) is indicated.
In Cell JNK3 Activation Assay COS7 African green monkey cells were sustained in DMEM solution containing 10% heat-inactivated FBS (Invitrogen), penicillin, and streptomycin at 37° C. and 5% CO2. Cells were transfected at 90-100% confluency in 6-well plates with pcDNA3-HA-ASK1 (0.4 ug), pcDNA3-HA-JNK3α2 (0.2 ug), and pcDNA3-Venus arrestin constructs (0.2-0.6 ug) at a 1:2 ratio of DNA:Lipofectamine 2000 (Invitrogen). At 48 hrs post-transfection, the cells were incubated with phosphatase inhibitors (20 mM NaF and 1 mM Na3VO4) in PBS for 15 mins, washed twice with cold PBS, and lysed using 50 mM Tris (pH 7.8), 2 mM EDTA, 250 mM NaCl, 10% Glycerol, 0.5% NP-40, 2 mM benzamide, and 1 mM PMSF. Protein concentration was measured using the Bio-Rad Quick Start™ Bovine Serum Albumin (BSA) Standard Set. The proteins were subjected to 10% SDS-PAGE and transferred to PVDF membrane (Millipore, Bedford, Mass.). Membranes were incubated with respective primary antibodies (Cell Signaling Technology, Inc.) anti-ASK1 (#3762S), anti-phospho-JNK (#9251), anti-SAPK/JNK (#9252P), anti-GST (#2625), or anti-HA (#3724), followed by the appropriate HRP-conjugated secondary antibodies. Bands were detected by x-ray film using enhanced chemiluminescence (ECL, Pierce) and quantification was done using the software Quantity One (BioRad).

MKK4-JNK3 module = experiment: JNK3 phosphorylation by co-expressed MKK4 in cells; type: cell-based, African green monkey; conditions: YFP-T1A co-expressed with MKK4 in COS7 cells
Procedure: (§2) To test whether T1A can promote JNK3 phosphorylation by MKKs in cells, MKK4 or MKK7 was co-expressed with YFP-T1A in COS7 cells, using YFP and full-length arrestin-3 as negative and positive controls, respectively (FIG. 2C).
as §1
(§3) COS-7 cells were incubated with phosphatase inhibitors (50 mM NaF and 10 mM Na3VO4) in serum-free medium for 15 min at 37° C.; washed with cold PBS; and lysed with SDS lysis buffer containing 1% SDS, 10 mM Tris (pH7.4), 10 mM NaF, 100 μM Na3VO4, 2 mM EDTA, 2 mM benzamidine and 1 mM PMSF. JNKs activity was assayed by Western blotting using an antibody specific for phosphorylated JNK to detect phosphorylated (active) JNKs^17,20,23. […] Protein was measured using the Bio-Rad Coomassie Blue assay. […] Protein bands were detected by enhanced chemiluminescence (ECL, Pierce), followed by exposure to x-ray film. To quantify phospho-JNKs, serial dilutions of anisomycin (1 μg/ml)-stimulated HEK-A cell lysates were used to ensure that all samples were in linear range. […]

MKK7-JNK3 module = experiment: JNK3 phosphorylation by co-expressed MKK7 in cells; type: cell-based, African green monkey; conditions: YFP-T1A co-expressed with MKK7 in COS7 cells
Procedure: as §2, §1, §3

JNK3 = JNK3 (Homo sapiens, UniProt P53779); conditions: earlier work, reference 23; cited from earlier work
Sequence of JNK3 (P53779 whole entry, species assumed): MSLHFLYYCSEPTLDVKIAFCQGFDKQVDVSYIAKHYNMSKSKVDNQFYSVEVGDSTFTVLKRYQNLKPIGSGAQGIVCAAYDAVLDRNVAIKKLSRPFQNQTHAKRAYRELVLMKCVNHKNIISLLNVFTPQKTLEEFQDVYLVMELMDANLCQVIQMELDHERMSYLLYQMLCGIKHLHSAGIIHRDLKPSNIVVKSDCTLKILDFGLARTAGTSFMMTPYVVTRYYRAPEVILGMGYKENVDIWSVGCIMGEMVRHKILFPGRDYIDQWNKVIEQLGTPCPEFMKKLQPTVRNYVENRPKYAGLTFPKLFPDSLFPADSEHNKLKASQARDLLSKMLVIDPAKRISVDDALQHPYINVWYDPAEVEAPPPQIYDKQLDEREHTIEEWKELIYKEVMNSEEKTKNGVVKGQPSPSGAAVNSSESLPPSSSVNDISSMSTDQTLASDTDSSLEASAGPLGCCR

Substance	JNK3 phosphorylation in cells, YFP fusions [1]	JNK3 phosphorylation by MKK4 in cells (MKK4-JNK3 module)	JNK3 phosphorylation by MKK7 in cells (MKK7-JNK3 module)	in cell JNK3α2 activation (phospho-JNK3 densitometry) ([1]; Example 2, YFP/Venus constructs with HA-ASK1, HA-JNK3α2 in COS7 cells)	effect on JNK3 phosphorylation compared with full-length arrestin-3 ([1]; YFP fusion co-expressed with JNK3 and ASK1 in COS7 cells)	dose-response curve of JNK3 phosphorylation ([1]; varying amounts of YFP-T1A with ASK1 and JNK3)	JNK3 binding element of arrestin-3 (JNK3)
MGDK-GTRVFKKASPNGKLTVYLGK (MGDKGTRVFKKASPNGKLTVYLGK; N-terminal MGDK; bovine) [B1A, homologous N-terminal peptide from arrestin-2, negative control]	does not function as a scaffold of ASK1-MKK4/7-JNK3 cascade in cells	–	–	–	–	–	–
MGEKPGTRVFKKSSPNCKLTVYLGK (bovine) [T1A, first 25 residues of arrestin-3]	also active	necessary and sufficient to promote the signaling	necessary and sufficient to promote the signaling	facilitates JNK3 activation	greater than that of full-length arrestin-3	biphasic, with a clear optimum	key interaction site
